The supplement of paper PMC11208160

test: recombinant UMI read abundance after kanamycin selection (control-corrected) (log10(CPM+1)); higher = more efficient recombination; extreme values may be limits of the assay; sequences stand for … in AGTGCAGAGAAAATCGGCCAGTTTTCTCTGCCTGCAGTCCGCATGCCGTGGGACCCCTTGGGTTCTAACCTGTTGCCTAGATTTATGCAGCGGACTGCCTTTCTCCCAAAGTGATAAACCGG…AGGTTGGTTTCACT; site = the 11-nt donor
Summary of the method: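 In a pooled Escherichia coli screen for the IS621 bridge recombinase, donor and donor-binding-loop pairs were each placed with a 12-nt UMI on a plasmid bearing a promoterless kanamycin gene. This library was co-electroporated with a target plasmid encoding a fixed target and T7-inducible recombinase, and cells were plated either on IPTG (0.07 mM) plus kanamycin or without selection, in two replicates each. Recombinant UMIs were PCR-amplified across the donor–target junction and sequenced, and counts were converted to CPM, averaged over replicates, scaled by control-derived factors and reported as log10(CPM+1).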

Row | Sequence | recombinant UMI read abundance (log10)
1 | GACAAACCATGGACCGGTTTTCCCGGTAATCCGTATTTGGT (site GACAACCCTAC) | 0
2 | GACAAACCATGGACCGGTTTTCCCGGTAATCCGTATTTGGT (site GACAAGCCTAC) | 0.00399
3 | GACAAACCATGGACCGGTTTTCCCGGTAATCCGTATTTGGT (site GACAATCCTAC) | 0
4 | GACAAACCATGGACCGGTTTTCCCGGTAATCCGTATTTGGT (site GACACACCTAC) | 0
5 | GACAAACCATGGACCGGTTTTCCCGGTAATCCGTATTTGGT (site GACAGACCTAC) | 0
6 | GACAAACCATGGACCGGTTTTCCCGGTAATCCGTATTTGGT (site GACATACCTAC) | 0
7 | GACAAACCATGGACCGGTTTTCCCGGTAATCCGTATTTGGT (site GACCAACCTAC) | 0.00428
8 | GACAAACCATGGACCGGTTTTCCCGGTAATCCGTATTTGGT (site GACGAACCTAC) | 0
9 | GACAAACCATGGACCGGTTTTCCCGGTAATCCGTATTTGGT (site GACTAACCTAC) | 0
10 | GACAAACCATGGACCGGTTTTCCCGGTAATCCGTATTTGGT (site GAGAAACCTAC) | 0
11 | GACAAACCATGGACCGGTTTTCCCGGTAATCCGTATTTGGT (site GATAAACCTAC) | 0
12 | GACAAACCATGGACCGGTTTTCCCGGTAATCCGTATTTGGT (site GCCAAACCTAC) | 0
13 | GACAAACCATGGACCGGTTTTCCCGGTAATCCGTATTTGGT (site GGCAAACCTAC) | 0
14 | GACAAACCATGGACCGGTTTTCCCGGTAATCCGTATTTGGT (site GTCAAACCTAC) | 0
15 | GACAAACCATGGACCGGTTTTCCCGGTAATCCGTATTTGGT (site TACAAACCTAC) | 0
16 | GACAACCCATGGACCGGTTTTCCCGGTAATCCGTATTTGCT (site GACAACCCTAG) | 0.00684
17 | GACAACCCATGGACCGGTTTTCCCGGTAATCCGTATTTGGT (site GACAAACCTAC) | 0
18 | GACAACCCATGGACCGGTTTTCCCGGTAATCCGTATTTGGT (site GACAACCCTAC) | 0
19 | GACAACCCATGGACCGGTTTTCCCGGTAATCCGTATTTGGT (site GACAAGCCTAC) | 0.00882
20 | GACAACCCATGGACCGGTTTTCCCGGTAATCCGTATTTGGT (site GACAATCCTAC) | 0
21 | GACAAGCCATGGACCGGTTTTCCCGGTAATCCGTATTTGGT (site GACAAACCTAC) | 0
22 | GACAAGCCATGGACCGGTTTTCCCGGTAATCCGTATTTGGT (site GACAACCCTAC) | 0.00727
23 | GACAAGCCATGGACCGGTTTTCCCGGTAATCCGTATTTGGT (site GACAAGCCTAC) | 0
24 | GACAAGCCATGGACCGGTTTTCCCGGTAATCCGTATTTGGT (site GACAATCCTAC) | 0
25 | GACAATTCATGGACCGGTTTTCCCGGTAATCCGTATTTGAC (site GACAATTCTGT) | 0

Row | Sequence | recombinant UMI read abundance (log10)
26 | GACACATCATGGACCGGTTTTCCCGGTAATCCGTATTTGGT (site GACACATCTAC) | 2.25
27 | GACATACCATGGACCGGTTTTCCCGGTAATCCGTATTTGGT (site GACAAACCTAC) | 0
28 | GACATACCATGGACCGGTTTTCCCGGTAATCCGTATTTGGT (site GACACACCTAC) | 0.01
29 | GACATACCATGGACCGGTTTTCCCGGTAATCCGTATTTGGT (site GACAGACCTAC) | 0
30 | GACATACCATGGACCGGTTTTCCCGGTAATCCGTATTTGGT (site GACATACCTAC) | 0.0102
31 | GACCCGCCATGGACCGGTTTTCCCGGTAATCCGTATTTGAG (site GACCCGCCTCT) | 0.0157
32 | GACCCGCCATGGACCGGTTTTCCCGGTAATCCGTATTTGTG (site GACCCGCCTCA) | 0.0171
33 | GACCCGTCATGGACCGGTTTTCCCGGTAATCCGTATTTGTG (site GACCCGTCTCA) | 1.63
34 | GACCGAGCATGGACCGGTTTTCCCGGTAATCCGTATTTGTA (site GACCGAGCTTA) | 1.19
35 | GACCTAGCATGGACCGGTTTTCCCGGTAATCCGTATTTGAA (site GACCTAGCTTT) | 0.349
36 | GACCTCACATGGACCGGTTTTCCCGGTAATCCGTATTTGAT (site GAACTCACTAT) | 0.0127
37 | GACCTCACATGGACCGGTTTTCCCGGTAATCCGTATTTGAT (site GACCTCACTAT) | 0.626
38 | GACCTCACATGGACCGGTTTTCCCGGTAATCCGTATTTGAT (site GAGCTCACTAT) | 0
39 | GACCTCACATGGACCGGTTTTCCCGGTAATCCGTATTTGAT (site GATCTCACTAT) | 0.00913
40 | GACCTCCCATGGACCGGTTTTCCCGGTAATCCGTATTTGTG (site GACCTCCCTCA) | 0.00533
41 | GACGACGCATGGACCGGTTTTCCCGGTAATCCGTATTTGGA (site GACGACGCTTC) | 2.48
42 | GACGTAACATGGACCGGTTTTCCCGGTAATCCGTATTTGTA (site GACGTAACTTA) | 2.19
43 | GACTAGTCATGGACCGGTTTTCCCGGTAATCCGTATTTGTG (site GACTAGTCTCA) | 1.64
44 | GACTCTTCATGGACCGGTTTTCCCGGTAATCCGTATTTGGC (site GACTCTTCTGC) | 1.04
45 | GACTGGACATGGACCGGTTTTCCCGGTAATCCGTATTTGGT (site GACTGGACTAC) | 0.826
46 | GACTTTGCATGGACCGGTTTTCCCGGTAATCCGTATTTGCA (site GACTTTGCTTG) | 0
47 | GAGATCACATGGACCGGTTTTCCCGGTAATCCGTATTTGAT (site GAGATCACTAT) | 2.13
48 | GAGATCACATGGACCGGTTTTCCCGGTAATCCGTATTTGAT (site GAGCTCACTAT) | 0.00919
49 | GAGATCACATGGACCGGTTTTCCCGGTAATCCGTATTTGAT (site GAGGTCACTAT) | 0.0122
50 | GAGATCACATGGACCGGTTTTCCCGGTAATCCGTATTTGAT (site GAGTTCACTAT) | 0.113

Row | Sequence | recombinant UMI read abundance (log10)
51 | GAGCAAGCATGGACCGGTTTTCCCGGTAATCCGTATTTGCA (site GAGCAAGCTTG) | 2.68
52 | GAGCAGACATGGACCGGTTTTCCCGGTAATCCGTATTTGTG (site GAGCAGACTCA) | 1.25
53 | GAGCCCACATGGACCGGTTTTCCCGGTAATCCGTATTTGAT (site GAGCACACTAT) | 0
54 | GAGCCCACATGGACCGGTTTTCCCGGTAATCCGTATTTGAT (site GAGCCCACTAT) | 1.66
55 | GAGCCCACATGGACCGGTTTTCCCGGTAATCCGTATTTGAT (site GAGCGCACTAT) | 0.0147
56 | GAGCCCACATGGACCGGTTTTCCCGGTAATCCGTATTTGAT (site GAGCTCACTAT) | 0.00621
57 | GAGCGCGCATGGACCGGTTTTCCCGGTAATCCGTATTTGCG (site GAGCGCGCTCG) | 1.56
58 | GAGCTCACATGGACCGGTTTTCCCGGTAATCCGTATTTGGT (site GAGCTCACTAA) | 0.274
59 | GAGCTCACATGGACCGGTTTTCCCGGTAATCCGTATTTGGT (site GAGCTCACTAC) | 0.841
60 | GAGCTCACATGGACCGGTTTTCCCGGTAATCCGTATTTGGT (site GAGCTCACTAG) | 1.37
61 | GAGCTCACATGGACCGGTTTTCCCGGTAATCCGTATTTGGT (site GAGCTCACTAT) | 0.971
62 | GAGCTCGCATGGACCGGTTTTCCCGGTAATCCGTATTTGAT (site GAGCTCACTAT) | 1.7
63 | GAGCTCGCATGGACCGGTTTTCCCGGTAATCCGTATTTGAT (site GAGCTCCCTAT) | 0.626
64 | GAGCTCGCATGGACCGGTTTTCCCGGTAATCCGTATTTGAT (site GAGCTCGCTAT) | 2.26
65 | GAGCTCGCATGGACCGGTTTTCCCGGTAATCCGTATTTGAT (site GAGCTCTCTAT) | 1.37
66 | GAGGAAACATGGACCGGTTTTCCCGGTAATCCGTATTTGCT (site GAGGAAACTAG) | 0
67 | GAGGAACCATGGACCGGTTTTCCCGGTAATCCGTATTTGGA (site GAGGAACCTTC) | 0.00548
68 | GAGGATGCATGGACCGGTTTTCCCGGTAATCCGTATTTGAA (site GAGGATGCTTT) | 2.56
69 | GAGGTAGCATGGACCGGTTTTCCCGGTAATCCGTATTTGAT (site GAGGTAGCTAT) | 2.43
70 | GAGTAGCCATGGACCGGTTTTCCCGGTAATCCGTATTTGTC (site GAGTAGCCTGA) | 0
71 | GAGTGGACATGGACCGGTTTTCCCGGTAATCCGTATTTGAC (site GAATGGACTGT) | 1.75
72 | GAGTGGACATGGACCGGTTTTCCCGGTAATCCGTATTTGAC (site GACTGGACTGT) | 0.208
73 | GAGTGGACATGGACCGGTTTTCCCGGTAATCCGTATTTGAC (site GAGTGGACTGT) | 2.6
74 | GAGTGGACATGGACCGGTTTTCCCGGTAATCCGTATTTGAC (site GATTGGACTGT) | 0
75 | GATAAGCCATGGACCGGTTTTCCCGGTAATCCGTATTTGCC (site GATAAGCCTGG) | 0
